Laboratory results from article PMC6136660 (Steroids, 2018).
Like-named read-outs stand apart in the source and are kept apart here.

What was measured:
[1] = Phase 1 single ascending dose (SAD) pharmacokinetics, fasted; assay type: in vivo, human; conditions: for Vd/F: read-out: Vz/F; for k el: read-out: λz (converted)
Experimental: This clinical trial was a randomized, double-blind, placebo controlled single ascending (SAD) and multiple ascending (MAD) study to evaluate the safety, tolerability, and pharmacokinetics of vamorolone in health adult subjects. The study protocol and its amendments were reviewed and approved by an Institutional Review Board. It was conducted in accordance with the principles of the Declaration of Helsinki in place at the time of study conduct and in compliance with the International Council on Harmonisation (ICH) E6 Guideline for Good Clinical Practice.
In the SAD part of the study, 7 cohorts were to be enrolled. Eight subjects were assigned to each of Cohorts 1 to 5 and 7 and received a single oral dose of vamorolone (planned as 0.1 mg/kg, 0.3 mg/kg, 1.0 mg/kg, 3.0 mg/kg, 8.0 mg/kg, and 20.0 mg/kg, respectively) or placebo under fasted conditions. Six subjects were assigned to Cohort 6 and were administered a single oral dose of 8.0 mg/kg vamorolone within 30 min of beginning a high fat/high calorie meal.
Subjects in Cohorts 1 through 5 and 7 were randomized to receive vamorolone or placebo in a 3:1 ratio (6 subjects received vamorolone, and 2 subjects received placebo) sequentially. In Cohort 1, 3 sentinel subjects were administered vamorolone or placebo in a 2:1 ratio. Following a review of sentinel safety and tolerability data (including reported adverse events [AEs], clinical laboratory tests, vital signs, and electrocardiograms [ECGs]), the remaining 5 subjects were randomized to receive vamorolone or placebo in a 4:1 ratio and dosed no earlier than 48 h after sentinel dosing. In Cohorts 2 to 5, and 7, subjects were administered vamorolone or placebo in a 3:1 ratio. Once Cohort 5 was completed and safety data had been reviewed, subjects in Cohort 6 were administered a single oral dose of 8.0 mg/kg vamorolone within 30 min of beginning a standard high fat/high calorie meal.
The initial starting dose for the vamorolone SAD study was chosen based on 10% of the NOAEL in the most sensitive species (mouse) (0.1 mg/kg). Doses were then escalated by 3-fold increments for 6 dose groups (0.1, 0.3, 1.0, 3.0, 9.0, 20.0 mg/kg). Eight adult male volunteers were studied in each dose group (6 drug-treated, 2 placebo).

[2] = Clinical safety (treatment-emergent adverse events, MTD, NOAEL), MAD; assay type: in vivo
Experimental: The MAD part of the study was initiated after a review of safety and PK data from SAD cohorts 1 to 6. In the MAD part, 4 cohorts containing 8 subjects each were randomized to receive vamorolone or placebo, in a 3:1 ratio, once daily (QD) for 14 days. The duration of dosing in the MAD part was determined based on the PK data from the SAD part. In each cohort, 3 sentinel subjects were administered vamorolone or placebo, in a 2:1 ratio.
After completion of all scheduled safety follow-up visits for a given cohort, the SRC reviewed all available PK and safety data (AEs, physical examination findings, ECGs, vital signs, and clinical laboratory tests) in a blinded manner for the completed cohort prior to making a decision to escalate to the next higher dose level.
Dose escalation in the MAD part was to proceed according to protocol until the MTD was identified. The dose escalation stopping criteria, as listed above in the SAD section, comprised the halting rules for the MAD part. If any of these criteria were met during the 14-day dosing duration in the MAD part, dosing in that cohort was to be halted and no further dose escalation was to occur. If AEs/SAEs occurred more frequently in subjects treated with vamorolone compared to subjects treated with placebo, the SRC was to determine if dose escalation could continue. If dose escalation was terminated, the remaining cohorts could be enrolled to evaluate the safety and PK effects of vamorolone for dose levels between the previously tolerated dose and the dose level at which dose escalation was terminated. Once safety data from additional cohort(s) was assessed, the MTD was defined as the dose level below the dose at which the SRC determined there was an unacceptable risk to subjects.

[3] = test system: growth and bone; design: method as in PMID 24014378; conditions: 30 mg/kg/day, pre-clinical models; cited from earlier work
[4] = male, human, plasma, single oral 0.1 mg/kg, fasted, geometric mean (%CV)
[5] = male, human, plasma, single oral 0.3 mg/kg, fasted, geometric mean (%CV)
[6] = male, human, plasma, single oral 1 mg/kg, fasted, geometric mean (%CV)
[7] = male, human, plasma, single oral 3 mg/kg, fasted, geometric mean (%CV)
[8] = male, human, plasma, single oral 8 mg/kg, fasted, geometric mean (%CV)
[9] = male, human, plasma, single oral 20 mg/kg, fasted, geometric mean (%CV)

C[C@@H]1C[C@H]2[C@@H]3CCC4=CC(=O)C=C[C@]4(C)C3=CC[C@]2(C)[C@@]1(O)C(=O)CO [vamorolone]
slope of log plot of AUC(inf) vs dose ([1]; SAD 0.1-20 mg/kg): ~1.0
slope of log plot of Cmax vs dose ([1]; SAD 0.1-20 mg/kg): < 1.0
CL/F ([1]; male, human, plasma, oral, across single 0.1 to 20 mg/kg doses, fasted, read-out: CL/F, range of geometric mean values): 29.3 to 38.5 mL/min/kg
half-life ([1]; male, human, plasma, oral, healthy subjects, approximate overall, read-out: half-life (converted)): ~180 min
AUC(0-inf) [1, 4]: 49.5 ng·h/mL
AUC(0-t) [1, 4]: 41.9 ng·h/mL
Cmax [1, 4]: 13.1 ng/mL
CL/F ([1]; male, human, plasma, single oral 0.1 mg/kg, fasted, geometric mean (%CV), read-out: CL/F (converted)): 33.7 mL/min/kg
Vd/F [1, 4]: 4.98 L/kg
half-life ([1]; male, human, plasma, single oral 0.1 mg/kg, fasted, geometric mean (%CV), read-out: t½ (converted)): 103 min
k el [1, 4]: 0.000113 s⁻¹
Tmax ([1]; male, human, plasma, single oral 0.1 mg/kg, fasted, median, read-out: Tmax): 1.5 h
AUC(0-inf) [1, 5]: 170 ng·h/mL
AUC(0-t) [1, 5]: 161 ng·h/mL
Cmax [1, 5]: 50.8 ng/mL
CL/F ([1]; male, human, plasma, single oral 0.3 mg/kg, fasted, geometric mean (%CV), read-out: CL/F (converted)): 29.3 mL/min/kg
Vd/F [1, 5]: 4.07 L/kg
half-life ([1]; male, human, plasma, single oral 0.3 mg/kg, fasted, geometric mean (%CV), read-out: t½ (converted)): 96 min
k el [1, 5]: 0.00012 s⁻¹
Tmax ([1]; male, human, plasma, single oral 0.3 mg/kg, fasted, median, read-out: Tmax): 1.5 h
AUC(0-inf) [1, 6]: 500 ng·h/mL
AUC(0-t) [1, 6]: 486 ng·h/mL
Cmax [1, 6]: 122 ng/mL
CL/F ([1]; male, human, plasma, single oral 1 mg/kg, fasted, geometric mean (%CV), read-out: CL/F (converted)): 33.3 mL/min/kg
Vd/F [1, 6]: 5.22 L/kg
half-life ([1]; male, human, plasma, single oral 1 mg/kg, fasted, geometric mean (%CV), read-out: t½ (converted)): 109 min
k el [1, 6]: 0.000106 s⁻¹
Tmax ([1]; male, human, plasma, single oral 1 mg/kg, fasted, median, read-out: Tmax): 1.75 h
AUC(0-inf) [1, 7]: 1600 ng·h/mL
AUC(0-t) [1, 7]: 1580 ng·h/mL
Cmax [1, 7]: 305 ng/mL
CL/F ([1]; male, human, plasma, single oral 3 mg/kg, fasted, geometric mean (%CV), read-out: CL/F (converted)): 31.3 mL/min/kg
Vd/F [1, 7]: 6.76 L/kg
half-life ([1]; male, human, plasma, single oral 3 mg/kg, fasted, geometric mean (%CV), read-out: t½ (converted)): 150 min
k el [1, 7]: 7.7e-05 s⁻¹
Tmax ([1]; male, human, plasma, single oral 3 mg/kg, fasted, median, read-out: Tmax): 1.75 h
AUC(0-inf) [1, 8]: 3600 ng·h/mL
AUC(0-t) [1, 8]: 4000 ng·h/mL
Cmax [1, 8]: 718 ng/mL
CL/F ([1]; male, human, plasma, single oral 8 mg/kg, fasted, geometric mean (%CV), read-out: CL/F (converted)): 37 mL/min/kg
Vd/F [1, 8]: 10.4 L/kg
half-life ([1]; male, human, plasma, single oral 8 mg/kg, fasted, geometric mean (%CV), read-out: t½ (converted)): 195 min
k el [1, 8]: 5.93e-05 s⁻¹
Tmax ([1]; male, human, plasma, single oral 8 mg/kg, fasted, median, read-out: Tmax): 1.78 h
AUC(0-inf) [1, 9]: 8650 ng·h/mL
AUC(0-t) [1, 9]: 8540 ng·h/mL
Cmax [1, 9]: 1650 ng/mL
CL/F ([1]; male, human, plasma, single oral 20 mg/kg, fasted, geometric mean (%CV), read-out: CL/F (converted)): 38.5 mL/min/kg
Vd/F [1, 9]: 14.2 L/kg
half-life ([1]; male, human, plasma, single oral 20 mg/kg, fasted, geometric mean (%CV), read-out: t½ (converted)): 256 min
k el [1, 9]: 4.52e-05 s⁻¹
Tmax ([1]; male, human, plasma, single oral 20 mg/kg, fasted, median, read-out: Tmax): 1.5 h
Tmax ([1]; male, human, serum, oral suspension formulation (4% vamorolone by weight), read-out: time of peak serum concentrations): ~3 h
CL/F ([1]; single oral 0.1 mg/kg, fasted, geometric mean (%CV)): 168 (20.8) (6) L/h
CL/F ([1]; single oral 0.3 mg/kg, fasted, geometric mean (%CV)): 142 (14.4) (6) L/h
CL/F ([1]; single oral 1 mg/kg, fasted, geometric mean (%CV)): 165 (12.0) (6) L/h
CL/F ([1]; single oral 3 mg/kg, fasted, geometric mean (%CV)): 152 (18.5) (6) L/h
CL/F ([1]; single oral 8 mg/kg, fasted, geometric mean (%CV)): 196 (57.6) (4) L/h
CL/F ([1]; single oral 20 mg/kg, fasted, geometric mean (%CV)): 180 (29.8) (4) L/h
subjects experiencing TEAEs ([2]; MAD 1.0 mg/kg): 2 subjects
subjects experiencing TEAEs ([2]; MAD 3.0 mg/kg): none
subjects experiencing TEAEs ([2]; MAD 9.0 mg/kg): none
subjects experiencing TEAEs ([2]; MAD 20 mg/kg): 2 subjects
maximum tolerated dose (MTD) ([2]; MAD up to 20 mg/kg/day): not reached
severe adverse events ([2]; any SAD or MAD dose group): no severe adverse events
NOAEL at 14 days ([2]; human, in vivo, oral, highest dose tested, 14 days): 20 mg/kg/day
liver finding thought to be drug related ([2]; one subject, 20 mg/kg/day MAD cohort, dosing halted): mild elevations of liver enzymes
severe stunting of growth and osteopenia [3]: did not
